≈ marks a conversion by molar mass, not a printed value. Calls of active or inactive are those of the source. No cut-off for these calls is given here.
Key:
[1] = system: Staphylococcus aureus; assay: Antibacterial activity against Staphylococcus aureus WCUH 29 after 18 to 24 hrs by broth microdilution technique; type: functional
[2] = Inhibition of Escherichia coli DNA gyrase-mediated DNA replication using [3H]dATP by scintillation proximity assay
[3] = system: Haemophilus influenzae; assay: Antibacterial activity against Haemophilus influenzae H128 after 18 to 24 hrs by broth microdilution technique; type: functional
[4] = system: Streptococcus pneumoniae; assay: Antibacterial activity against Streptococcus pneumoniae 1629 after 18 to 24 hrs by broth microdilution technique; type: functional
[5] = system: Haemophilus influenzae; assay: Antibacterial activity against Haemophilus influenzae Q1 after 18 to 24 hrs by broth microdilution technique; type: functional
[6] = biological target: Voltage-gated inwardly rectifying potassium channel KCNH2 (Homo sapiens, UniProt Q12809); assay: Inhibition of human ERG by whole cell patch clamp assay
[7] = Drug metabolism in dog liver microsomes assessed as mono-oxidation metabolite formation; type: ADME, Canis lupus familiaris, Microsome
[8] = system: Cynomolgus monkey; assay: Hepatic blood flow in cynomolgus monkey at 2.7 mg/kg, iv; type: ADME, organism-based, Macaca fascicularis, Liver; design: dose 2.7 mg/kg, route intravenous; conditions: in vivo
[9] = system: Liver microsomes; assay: Intrinsic clearance in human liver microsomes; type: ADME, Microsome
[10] = Blood clearance in Beagle dog at 2.6 mg/kg, iv; type: ADME, organism-based, Canis lupus familiaris; design: dose 2.6 mg/kg, route intravenous
[11] = Half life in Sprague-Dawley rat at 2.9 mg/kg, iv; type: ADME, organism-based; design: dose 2.9 mg/kg, route intravenous; conditions: in vivo
[12] = Volume of distribution at steady state in Sprague-Dawley rat at 2.9 mg/kg, iv; type: ADME, organism-based; design: dose 2.9 mg/kg, route intravenous; conditions: in vivo, read-out: Vdss
[13] = Mean residence time in Beagle dog at 4.5 mg/kg, po; type: ADME, organism-based, Canis lupus familiaris; design: dose 4.5 mg/kg, route oral; conditions: in vivo
[14] = system: Rattus norvegicus; assay: Renal clearance in Sprague-Dawley rat at 2.9 mg/kg, iv; type: ADME, organism-based, Kidney; design: dose 2.9 mg/kg, route intravenous; conditions: in vivo
[15] = Oral bioavailability in Beagle dog at 4.5 mg/kg; type: ADME, organism-based, Canis lupus familiaris; conditions: in vivo
[16] = system: Streptococcus pneumoniae; assay: Antibacterial activity against Streptococcus pneumoniae 1629 infected in rat assessed as log decrease in colony forming units per lung at 25 mg/kg, po after 48 hrs relative to untreated control; type: functional
[17] = Volume of distribution at steady state in cynomolgus monkey at 2.7 mg/kg, iv; type: ADME, organism-based, Macaca fascicularis; design: dose 2.7 mg/kg, route intravenous; conditions: in vivo, read-out: Vdss
[18] = Half life in Beagle dog at 2.6 mg/kg, iv; type: ADME, organism-based, Canis lupus familiaris; design: dose 2.6 mg/kg, route intravenous; conditions: in vivo
[19] = Mean residence time in Sprague-Dawley rat at 4.6 mg/kg, po; type: ADME, organism-based; design: dose 4.6 mg/kg, route oral; conditions: in vivo
[20] = Blood clearance in Sprague-Dawley rat at 2.9 mg/kg, iv; type: ADME, organism-based; design: dose 2.9 mg/kg, route intravenous
[21] = Plasma protein binding in monkey; type: ADME, cell-free, Macaca mulatta; conditions: rhesus monkey, read-out: PPB (converted)
[22] = system: Liver microsomes; assay: Drug metabolism in rat liver microsomes assessed as mono-oxidation metabolite formation; type: ADME, Microsome
[23] = system: Cynomolgus monkey; assay: Renal clearance in cynomolgus monkey at 2.7 mg/kg, iv; type: ADME, organism-based, Macaca fascicularis, Kidney; design: dose 2.7 mg/kg, route intravenous; conditions: in vivo
[24] = system: Rattus norvegicus; assay: Hepatic blood flow in Sprague-Dawley rat at 2.9 mg/kg, iv; type: ADME, organism-based, Liver; design: dose 2.9 mg/kg, route intravenous; conditions: in vivo
[25] = system: Canis familiaris; assay: Hepatic blood flow in Beagle dog at 2.6 mg/kg, iv; type: ADME, organism-based, Canis lupus familiaris, Liver; design: dose 2.6 mg/kg, route intravenous; conditions: in vivo
[26] = Mean residence time in cynomolgus monkey at 4.4 mg/kg, po; type: ADME, organism-based, Macaca fascicularis; design: dose 4.4 mg/kg, route oral; conditions: in vivo
[27] = system: Canis familiaris; assay: Renal clearance in Beagle dog at 2.6 mg/kg, iv; type: ADME, organism-based, Canis lupus familiaris, Kidney; design: dose 2.6 mg/kg, route intravenous; conditions: in vivo
[28] = Oral bioavailability in cynomolgus monkey at 4.4 mg/kg; type: ADME, organism-based, Macaca fascicularis; conditions: in vivo
[29] = Drug metabolism in monkey liver microsomes assessed as mono-oxidation metabolite formation; type: ADME, Macaca mulatta, Microsome; conditions: rhesus monkey
[30] = Plasma protein binding in rat; type: ADME, cell-free; conditions: read-out: PPB (converted)
[31] = system: Streptococcus pneumoniae; assay: Antibacterial activity against Streptococcus pneumoniae 1629 infected in rat assessed as complete eradication of infection at 50 mg/kg, po after 48 hrs; type: functional, organism-based; design: dose 50 mg/kg
[32] = system: Liver; assay: Intrinsic clearance in dog liver microsomes; type: ADME, Canis lupus familiaris, Microsome
[33] = Volume of distribution at steady state in Beagle dog at 2.6 mg/kg, iv; type: ADME, organism-based, Canis lupus familiaris; design: dose 2.6 mg/kg, route intravenous; conditions: in vivo, read-out: Vdss
[34] = Plasma protein binding in human; type: ADME, cell-free; conditions: read-out: PPB (converted)
[35] = AUC in Sprague-Dawley rat at 4.6 mg/kg, po; type: ADME, organism-based; design: dose 4.6 mg/kg, route oral; conditions: plasma
[36] = Blood clearance in cynomolgus monkey at 2.7 mg/kg, iv; type: ADME, organism-based, Macaca fascicularis; design: dose 2.7 mg/kg, route intravenous
[37] = Plasma protein binding in dog; type: ADME, cell-free, Canis lupus familiaris; conditions: read-out: PPB (converted)
[38] = Intrinsic clearance in monkey liver microsomes; type: ADME, Macaca mulatta, Microsome; conditions: rhesus monkey
[39] = AUC in Beagle dog at 4.5 mg/kg, po; type: ADME, organism-based, Canis lupus familiaris; design: dose 4.5 mg/kg, route oral; conditions: plasma
[40] = Half life in cynomolgus monkey at 2.7 mg/kg, iv; type: ADME, organism-based, Macaca fascicularis; design: dose 2.7 mg/kg, route intravenous; conditions: in vivo
[41] = Oral bioavailability in Sprague-Dawley rat at 4.6 mg/kg; type: ADME, organism-based; conditions: in vivo
[42] = AUC in cynomolgus monkey at 4.4 mg/kg, po; type: ADME, organism-based, Macaca fascicularis; design: dose 4.4 mg/kg, route oral; conditions: plasma

Chain of Voltage-gated inwardly rectifying potassium channel KCNH2 (Q12809 whole entry): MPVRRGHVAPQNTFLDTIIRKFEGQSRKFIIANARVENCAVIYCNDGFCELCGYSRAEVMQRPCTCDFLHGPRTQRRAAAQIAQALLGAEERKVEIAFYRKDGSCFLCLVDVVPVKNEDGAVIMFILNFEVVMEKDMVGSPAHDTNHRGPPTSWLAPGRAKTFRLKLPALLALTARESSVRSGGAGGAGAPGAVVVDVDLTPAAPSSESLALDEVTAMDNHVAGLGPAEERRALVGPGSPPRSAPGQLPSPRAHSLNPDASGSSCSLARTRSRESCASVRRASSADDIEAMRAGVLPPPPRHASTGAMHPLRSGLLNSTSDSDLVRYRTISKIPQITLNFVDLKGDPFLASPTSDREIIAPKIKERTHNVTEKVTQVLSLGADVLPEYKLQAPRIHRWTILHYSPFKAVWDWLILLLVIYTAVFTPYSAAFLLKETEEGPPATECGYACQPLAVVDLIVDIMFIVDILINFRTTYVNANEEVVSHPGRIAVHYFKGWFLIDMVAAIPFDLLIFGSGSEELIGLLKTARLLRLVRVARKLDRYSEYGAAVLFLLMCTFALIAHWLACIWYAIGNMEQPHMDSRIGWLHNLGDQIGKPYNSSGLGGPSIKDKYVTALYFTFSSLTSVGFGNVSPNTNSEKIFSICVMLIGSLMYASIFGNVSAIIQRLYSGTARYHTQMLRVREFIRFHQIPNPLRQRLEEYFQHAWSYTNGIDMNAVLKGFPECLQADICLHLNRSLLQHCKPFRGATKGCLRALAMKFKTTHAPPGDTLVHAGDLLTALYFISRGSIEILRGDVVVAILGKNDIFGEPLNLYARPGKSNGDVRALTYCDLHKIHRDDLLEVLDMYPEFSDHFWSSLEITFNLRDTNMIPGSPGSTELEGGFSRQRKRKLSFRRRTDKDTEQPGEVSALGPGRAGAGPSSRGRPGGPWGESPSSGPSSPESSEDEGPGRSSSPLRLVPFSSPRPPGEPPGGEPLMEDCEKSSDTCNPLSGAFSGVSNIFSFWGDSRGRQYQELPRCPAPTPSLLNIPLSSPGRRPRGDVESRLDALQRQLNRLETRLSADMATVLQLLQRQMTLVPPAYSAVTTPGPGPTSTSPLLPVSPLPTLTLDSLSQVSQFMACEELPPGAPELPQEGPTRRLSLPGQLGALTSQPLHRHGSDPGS

## N#Cc1ccc2cccc(NC(=O)[C@@H]3CC[C@@H](NCc4cc5c(cn4)OCCO5)[C@@H](O)C3)c2n1
[1]
  MIC: 0.01 µg/mL (≈ 0.0218 µM)
[2]
  IC50: 0.001 µg/mL (≈ 0.00218 µM)
[3]
  MIC: 0.5 µg/mL (≈ 1.09 µM)
[4]
  MIC: 0.03 µg/mL (≈ 0.0653 µM)

## CO[C@@H]1C[C@H](C(=O)Nc2cccc3ccc(C)nc23)CC[C@H]1NCc1cc2c(cn1)OCCO2
[1]
  MIC: 0.5 µg/mL (≈ 1.08 µM)
[2]
  IC50: 0.102 µg/mL (≈ 0.221 µM)
[3]
  MIC: 16 µg/mL (≈ 34.6 µM)
[4]
  MIC: 0.5 µg/mL (≈ 1.08 µM)

## COc1ccc2nccc(NC(=O)[C@H]3CC[C@H](NCc4ccc5c(c4)OCCO5)CC3)c2c1
[5]
  MIC: 2 µg/mL (≈ 4.47 µM)
[1]
  MIC: 0.03 µg/mL (≈ 0.067 µM)
[2]
  IC50: 0.017 µg/mL (≈ 0.038 µM)
[4]
  MIC: 0.25 µg/mL (≈ 0.559 µM)
[6]
  IC50: 25 µM

## COc1ccc2nccc(NC(=O)[C@]3(O)CC[C@@H](NCc4cc5c(cn4)OCCO5)CC3)c2c1
[1]
  MIC: 0.125 µg/mL (≈ 0.269 µM)
[2]
  IC50: 0.01 µg/mL (≈ 0.0215 µM)
[3]
  MIC: 1 µg/mL (≈ 2.15 µM)
[4]
  MIC: 0.125 µg/mL (≈ 0.269 µM)
[6]
  IC50: 200 µM

## COc1ccc2nccc(NC(=O)[C@]3(O)CC[C@@H](NCc4cc5c(cn4)OCCO5)CC3)c2n1
[7]
  Drug metabolism: Active
[8]
  QH: 73%
[9]
  CL: 0.8 mL/min/g
[10]
  clearance: 8.4 mL/min/kg
[11]
  half-life: 1 h
[12]
  Vd: 2.41 L/kg
[13]
  MRT: 9.8 h
[14]
  CL: 3%
[15]
  bioavailability: 63%
[16]
  log10cfu: 2
[17]
  Vd: 4.1 L/kg
[18]
  half-life: 6.3 h
[19]
  MRT: 2.9 h
[20]
  clearance: 41.1 mL/min/kg
[21]
  fraction unbound: 0.165
[22]
  Drug metabolism: Active
[23]
  CL: 3%
[24]
  QH: 73%
[25]
  QH: 73%
[1]
  MIC: 0.01 µg/mL (≈ 0.0215 µM)
[2]
  IC50: 0.013 µg/mL (≈ 0.0279 µM)
[26]
  MRT: 6.4 h
[27]
  CL: 3%
[28]
  bioavailability: 9%
[29]
  Drug metabolism: Active
[3]
  MIC: 0.5 µg/mL (≈ 1.07 µM)
[30]
  fraction unbound: 0.268
[4]
  MIC: 0.125 µg/mL (≈ 0.269 µM)
[31]
  Activity: Active
[32]
  CL: 2.2 mL/min/g
[33]
  Vd: 3.7 L/kg
[34]
  fraction unbound: 0.274
[35]
  AUC: 340 ng·h/mL
[36]
  clearance: 34.2 mL/min/kg
[37]
  fraction unbound: 0.263
[38]
  CL: 2.6 mL/min/g
[39]
  AUC: 5700 ng·h/mL
[40]
  half-life: 1.8 h
[41]
  bioavailability: 18%
[42]
  AUC: 190 ng·h/mL

## N#Cc1ccc2cccc(NC(=O)[C@]3(O)CC[C@@H](NCc4cc5c(cn4)OCCO5)CC3)c2n1
[1]
  MIC: 0.03 µg/mL (≈ 0.0653 µM)
[2]
  IC50: 0.002 µg/mL (≈ 0.00435 µM)
[3]
  MIC: 0.5 µg/mL (≈ 1.09 µM)
[4]
  MIC: 0.06 µg/mL (≈ 0.131 µM)

## COc1ccc2nccc(NC(=O)[C@H]3CC[C@H](NCc4ccc5c(c4)OCCO5)CC3)c2n1
[1]
  MIC: 0.03 µg/mL (≈ 0.0669 µM)
[2]
  IC50: 0.003 µg/mL (≈ 0.00669 µM)
[3]
  MIC: 1 µg/mL (≈ 2.23 µM)
[4]
  MIC: 0.125 µg/mL (≈ 0.279 µM)

## Cc1ccc2cccc(NC(=O)[C@H]3CC[C@H](NCc4cc5c(cn4)OCCO5)CC3)c2n1
[1]
  MIC: 0.125 µg/mL (≈ 0.289 µM)
[2]
  IC50: 0.069 µg/mL (≈ 0.16 µM)
[3]
  MIC: 2 µg/mL (≈ 4.62 µM)
[4]
  MIC: 0.25 µg/mL (≈ 0.578 µM)

## COc1ccc2nccc(NC(=O)[C@H]3CC[C@H](NCc4cc5c(cn4)OCCO5)CC3)c2n1
[1]
  MIC: 0.01 µg/mL (≈ 0.0222 µM)
[2]
  IC50: 0.008 µg/mL (≈ 0.0178 µM)
[3]
  MIC: 0.25 µg/mL (≈ 0.556 µM)
[4]
  MIC: 0.03 µg/mL (≈ 0.0667 µM)
[6]
  IC50: 29 µM

## COc1ccc2nccc(NC(=O)[C@]3(O)CC[C@@H](NCc4ccc5c(c4)OCCO5)CC3)c2n1
[1]
  MIC: 0.03 µg/mL (≈ 0.0646 µM)
[2]
  IC50: 0.004 µg/mL (≈ 0.00861 µM)
[3]
  MIC: 0.5 µg/mL (≈ 1.08 µM)
[4]
  MIC: 0.03 µg/mL (≈ 0.0646 µM)
[6]
  IC50: 25 µM

## COc1ccc2nccc(NC(=O)[C@]3(O)CC[C@@H](NCc4cnc5c(c4)OCCO5)CC3)c2n1
[1]
  MIC: 0.03 µg/mL (≈ 0.0644 µM)
[2]
  IC50: 0.01 µg/mL (≈ 0.0215 µM)
[3]
  MIC: 2 µg/mL (≈ 4.3 µM)
[4]
  MIC: 0.06 µg/mL (≈ 0.129 µM)

## Cc1ccc2cccc(NC(=O)[C@]3(O)CC[C@@H](NCc4cc5c(cn4)OCCO5)CC3)c2n1
[1]
  MIC: 0.125 µg/mL (≈ 0.279 µM)
[2]
  IC50: 0.05 µg/mL (≈ 0.111 µM)
[3]
  MIC: 2 µg/mL (≈ 4.46 µM)
[4]
  MIC: 0.125 µg/mL (≈ 0.279 µM)
[6]
  IC50: 2 µM

## COc1cc(F)c2nccc(NC(=O)[C@]3(O)CC[C@@H](NCc4cc5c(cn4)OCCO5)CC3)c2c1
[1]
  MIC: 0.06 µg/mL (≈ 0.124 µM)
[2]
  IC50: 0.009 µg/mL (≈ 0.0187 µM)
[3]
  MIC: 1 µg/mL (≈ 2.07 µM)
[4]
  MIC: 0.125 µg/mL (≈ 0.259 µM)
[6]
  IC50: 113 µM

Source: ChEMBL document CHEMBL1926622, “Novel cyclohexyl-amides as potent antibacterials targeting bacterial type IIA topoisomerases” (Bioorg Med Chem Lett, 2011)
